In patent publication EP4817594A1, “SKIN CONDITION IMPROVEMENT COMPOSITION COMPRISING GLUTATHIONE-CONTAINING EXOSOME-LIKE VESICLES” (Cosmax, Inc., priority 2023, dated 2025):
Like-named read-outs stand apart in the source and are kept apart here.

Procedure: At this time, reduced glutathione was used as a standard.
Each of the diluted standard, the sample of Comparative Example 1 diluted in tertiary distilled water, the sample of Example diluted in tertiary distilled water, and the sample of Comparative Example 2 diluted in tertiary distilled water was filtered through a 0.2 µm-syringe filter, and the filtrate was put into a vial for HPLC. 10 ul was injected into a C18 column, and the samples were eluted at a flow rate of 1 ml/min, and the values were measured by using a DAD detector.

Relative concentration of reduced glutathione (GSH) (Immediately after loading, 25 °C, light blocked): 1.00
Relative concentration of reduced glutathione (GSH) (water, 4380 h): 0.21
glutathione concentration compared to the initial concentration (water, 4380 h): about 20%
Relative concentration of reduced glutathione (GSH) (water, 8766 h): 0.06
glutathione concentration compared to the initial concentration (water, 8766 h): about 6%
Compound: N[C@@H](CCC(=O)N[C@@H](CS)C(=O)NCC(=O)O)C(=O)O [Comparative Example 1, Glutathione]
